Several values for one entry are separate records, joined by “and”; a condition that tells them apart may be missing. Equal values may be shown once. Read-outs that look alike come from different tables or passages of the source.
Columns and labels:
CYP1A2 [1] = biological target: T1, CYP1A2 (Homo sapiens, UniProt P05177); experiment: Inhibition of CYP1A2 activity in pooled human liver microsomes (phenacetin 50 μM to acetaminophen); assay type: in vitro ADME
T1 sequence (P05177 1-516): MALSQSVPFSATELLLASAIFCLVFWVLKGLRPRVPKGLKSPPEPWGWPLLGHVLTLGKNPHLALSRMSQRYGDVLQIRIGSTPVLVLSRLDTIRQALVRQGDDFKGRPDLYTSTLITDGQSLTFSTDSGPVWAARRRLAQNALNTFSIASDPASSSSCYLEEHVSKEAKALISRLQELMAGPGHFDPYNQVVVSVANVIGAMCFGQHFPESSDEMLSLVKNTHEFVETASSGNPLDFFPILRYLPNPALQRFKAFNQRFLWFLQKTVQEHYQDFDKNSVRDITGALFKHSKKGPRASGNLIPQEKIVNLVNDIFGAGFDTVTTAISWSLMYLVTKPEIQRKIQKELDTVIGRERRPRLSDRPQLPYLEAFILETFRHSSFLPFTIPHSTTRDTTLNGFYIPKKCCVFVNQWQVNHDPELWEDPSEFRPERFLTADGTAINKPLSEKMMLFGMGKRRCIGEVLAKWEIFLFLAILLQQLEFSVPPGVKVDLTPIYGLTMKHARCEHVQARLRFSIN
Procedure: Microsomes were prepared by differential centrifugation of liver homogenates pooled from at least ten human donors.
After a 5 minute preincubation, NADPH regenerating system (NRS) was added to initiate the reaction. CYP2A6 and CYP3A4 incubations were for 10 minutes. All other incubations were for 30 minutes.
Incubations for CYP2C8 were terminated by adding 1.0 mL of ACN, while all other incubations were terminated by adding 1.0 mL of methanol.
Vehicle control experiments were performed to establish a baseline value for enzyme activity. […] Four replicates were performed.
Two replicates were performed. […] No interference was detected in any of the metabolite assay methods used.

CYP3A4 [2] = biological target: T2, CYP3A4 (Homo sapiens, UniProt P08684); conditions: for Percent of VC / Specific Activity Mean ± SD: human, 10 min
Procedure: All other incubations were for 30 minutes.
(§1) Four replicates were performed.
as §1
Target sequence in this assay (P08684 whole entry): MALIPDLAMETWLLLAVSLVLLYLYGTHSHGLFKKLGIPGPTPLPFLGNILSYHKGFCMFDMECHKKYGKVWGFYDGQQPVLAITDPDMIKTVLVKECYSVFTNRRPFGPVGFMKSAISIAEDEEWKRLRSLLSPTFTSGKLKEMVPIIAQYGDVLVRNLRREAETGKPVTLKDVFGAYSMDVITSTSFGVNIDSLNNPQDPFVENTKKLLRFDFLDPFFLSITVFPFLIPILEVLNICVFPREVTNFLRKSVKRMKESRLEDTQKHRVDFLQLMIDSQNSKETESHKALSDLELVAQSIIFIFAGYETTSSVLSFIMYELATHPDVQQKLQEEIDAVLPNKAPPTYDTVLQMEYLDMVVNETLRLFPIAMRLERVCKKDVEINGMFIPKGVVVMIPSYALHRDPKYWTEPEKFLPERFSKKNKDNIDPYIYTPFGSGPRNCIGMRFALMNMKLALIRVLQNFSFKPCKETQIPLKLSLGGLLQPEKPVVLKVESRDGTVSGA
Two replicates were performed.

CYP1A2 [3] = experiment: Induction/inhibition of CYP1A2 activity in cryopreserved human hepatocytes after 48 h exposure (phenacetin)
Source text: Hepatocytes from three human donors were obtained from a cryopreserved hepatocyte bank (In Vitro Technologies, Inc., USA). After thawing, viable hepatocytes were transferred to collagen-coated 48-well plates for attachment in plating medium (DMEM stock (Dulbecco's modified Eagle's medium, supplemented with bovine serum albumin, fructose, N-(2-hydroxyethyl)piperazine-N′-(2-ethanesulfonate) (HEPES), and sodium bicarbonate), supplemented with antibiotics, bovine serum, hydrocortisone, insulin and minimum essential medium (MEM) nonessential amino acids). After attachment to the collagen matrix, plating medium was replaced with sandwich medium (plating medium supplemented with VITROGEN) and incubated until use.
The supplemented KHB was replaced with 150 μL supplemented KHB containing the appropriate isoform-selective substrate and incubated for 4 hrs prior to termination by adding 150 μL ice-cold methanol, except for the CYP2C8 incubations which were terminated by adding 150 μL acetonitrile.
All substrates were dissolved in acetonitrile.
Replicate trials and controls were performed. […] Additionally, reference control samples were included to evaluate inducibility of CYP2B6, CYP2C9, and CYP2C19 in the test system.
Mean specific activity values with associated p-values≦0.05 were deemed to be statistically significant.

CYP3A4 [4] = biological target: T2, CYP3A4; experiment: Metabolism of metaxalone by expressed recombinant human CYP3A4 at 5 or 20 pmol (Example 4); conditions: for percent turnover / % Turnover Mean / [metaxalone] Mean / % Turnover % / [metaxalone]: 60 min; for % Turnover % / [metaxalone]: single replicates, listed as Metaxalone
Target sequence in this assay (P08684 2-503 limits assumed): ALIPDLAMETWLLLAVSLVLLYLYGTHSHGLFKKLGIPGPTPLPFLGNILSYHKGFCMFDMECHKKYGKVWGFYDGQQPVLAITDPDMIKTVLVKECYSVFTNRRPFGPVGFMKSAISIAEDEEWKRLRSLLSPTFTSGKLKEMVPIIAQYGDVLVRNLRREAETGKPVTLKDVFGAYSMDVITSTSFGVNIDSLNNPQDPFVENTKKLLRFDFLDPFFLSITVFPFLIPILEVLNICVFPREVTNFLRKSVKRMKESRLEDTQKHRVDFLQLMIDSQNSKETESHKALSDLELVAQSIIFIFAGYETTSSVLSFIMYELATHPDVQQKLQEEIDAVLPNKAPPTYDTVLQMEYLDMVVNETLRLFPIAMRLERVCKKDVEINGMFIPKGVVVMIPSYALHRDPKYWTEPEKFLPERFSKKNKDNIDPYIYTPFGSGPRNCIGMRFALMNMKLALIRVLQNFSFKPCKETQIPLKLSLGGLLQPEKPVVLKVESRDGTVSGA

CYP2C8 = biological target: T3, CYP2C8 (Homo sapiens, UniProt P10632); experiment: Chemical inhibition of metaxalone turnover in human liver microsomes, CYP2C8 inhibitor quercetin; conditions: 1 mg/mL HLM, 60 min, with quercetin, single replicates
T3 sequence (P10632 1-490): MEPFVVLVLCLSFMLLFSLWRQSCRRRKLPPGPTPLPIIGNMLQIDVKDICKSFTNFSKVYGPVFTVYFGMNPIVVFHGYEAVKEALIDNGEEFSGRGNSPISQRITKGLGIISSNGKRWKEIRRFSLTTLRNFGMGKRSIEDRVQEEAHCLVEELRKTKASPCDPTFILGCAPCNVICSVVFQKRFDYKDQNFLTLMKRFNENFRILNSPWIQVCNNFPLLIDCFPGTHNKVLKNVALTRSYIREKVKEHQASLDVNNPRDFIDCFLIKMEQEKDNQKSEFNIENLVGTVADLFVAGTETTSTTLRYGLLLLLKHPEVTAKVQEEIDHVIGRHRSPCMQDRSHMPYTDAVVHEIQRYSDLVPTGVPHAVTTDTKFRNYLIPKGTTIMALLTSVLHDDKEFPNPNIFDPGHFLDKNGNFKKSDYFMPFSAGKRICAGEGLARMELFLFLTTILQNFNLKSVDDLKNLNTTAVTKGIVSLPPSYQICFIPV
Procedure: Human liver microsomes pooled from 15 individuals (male and female) (Pool HMMC-PL020; CellzDirect, Inc., In Vitro Products and Services Division) were used in some experiments of this study.
% Turnover=100−{[TA(final)]/[mean of TA(0 min)]}×100,
% Inhibition of Turnover=100{1−([TA(0 min)]−[TA(final-inhibitor)])/([TA(0 min)]−[TA(final-no inhibitor)])}.
The inhibitors or vehicle control were incubated with the pooled human liver microsomes (1 mg/mL) and NADPH (1 mM) in 0.1 M phosphate buffer, pH 7.4. […] Incubations were conducted in triplicate and terminated by addition of organic solvent. Samples were extracted and analyzed by LC-MS/MS as described above.

[5] = 0.75 μM metaxalone, 20 pmol cyp

Compound: Cc1cc(C)cc(OCC2CNC(=O)O2)c1 (stereo not shown) [metaxalone, 5-[(3,5-dimethylphenoxy)methyl]-2-oxazolidinone]
- inhibition of CYP activity at a statistically significant level (CYP1A2 [1]; 0.3-100 μM metaxalone, p≦0.05): inhibited
- Inhibitor (CYP1A2 [1]; CYP isozyme 1A2, summary of studies): +
- Percent of VC (CYP1A2 [1]; metaxalone 0.3 μM): 97.2%
- Specific Activity Individual (CYP1A2 [1]; metaxalone 0.3 μM): 28.6 pmol/min/mg protein and 27.2 pmol/min/mg protein
- Specific Activity Mean ± SD (CYP1A2 [1]; metaxalone 0.3 μM): 28.0 ± 0.715 pmol/min/mg protein
- Percent of VC (CYP1A2 [1]; metaxalone 1 μM): 92.3%
- Specific Activity Individual (CYP1A2 [1]; metaxalone 1 μM): 26.6 pmol/min/mg protein
- Specific Activity Mean ± SD (CYP1A2 [1]; metaxalone 1 μM): 26.6 ± 0.327 pmol/min/mg protein
- Percent of VC (CYP1A2 [1]; metaxalone 3 μM): 90.3%
- Specific Activity Individual (CYP1A2 [1]; metaxalone 3 μM): 26.5 pmol/min/mg protein and 25.1 pmol/min/mg protein and 26.4 pmol/min/mg protein
- Specific Activity Mean ± SD (CYP1A2 [1]; metaxalone 3 μM): 26.0 ± 0.785 pmol/min/mg protein
- Percent of VC (CYP1A2 [1]; metaxalone 30 μM): 89.8%
- Specific Activity Individual (CYP1A2 [1]; metaxalone 30 μM): 25.2 pmol/min/mg protein and 25.8 pmol/min/mg protein and 26.7 pmol/min/mg protein
- Specific Activity Mean ± SD (CYP1A2 [1]; metaxalone 30 μM): 25.9 ± 0.725 pmol/min/mg protein
- Percent of VC (CYP1A2 [1]; metaxalone 100 μM): 82.0%
- Specific Activity Individual (CYP1A2 [1]; metaxalone 100 μM): 23.7 pmol/min/mg protein and 23.6 pmol/min/mg protein (2×)
- Specific Activity Mean ± SD (CYP1A2 [1]; metaxalone 100 μM): 23.6 ± 0.0275 pmol/min/mg protein
- Inhibitor (CYP3A4 [2]): +
- Percent of VC (CYP3A4 [2]; 0.3 μM): 87.1%
- Specific Activity Mean ± SD (CYP3A4 [2]; 0.3 μM): 517 ± 10.4 pmol/min/mg protein
- Percent of VC (CYP3A4 [2]; 1 μM): 88.1%
- Specific Activity Mean ± SD (CYP3A4 [2]; 1 μM): 523 ± 2.83 pmol/min/mg protein
- Percent of VC (CYP3A4 [2]; 3 μM): 90.0%
- Specific Activity Mean ± SD (CYP3A4 [2]; 3 μM): 534 ± 3.36 pmol/min/mg protein
- Percent of VC (CYP3A4 [2]; 30 μM): 85.2%
- Specific Activity Mean ± SD (CYP3A4 [2]; 30 μM): 506 ± 29.6 pmol/min/mg protein
- Percent of VC (CYP3A4 [2]; 100 μM): 80.3%
- Specific Activity Mean ± SD (CYP3A4 [2]; 100 μM): 477 ± 36.3 pmol/min/mg protein
- Inducer/Inhibitor (CYP1A2 [3]): +
- Percent of VC (CYP1A2 [3]; Donor 2, Metaxalone 40 μM): 197%
- Acetaminophen formation Adjusted Mean ± SD (CYP1A2 [3]; human, 4 h, 40 μM): 0.0589 ± 0.00795 µM
- Acetaminophen formation Adjusted Mean ± SD (CYP1A2 [3]; human, 48 h, 4 μM): 0.0443 ± 0.000214 µM
- effect on CYP1A2 activity (CYP1A2 [3]; human, hepatocytes, 48 h, 40 μM): induced CYP1A2 activity
- percent turnover (CYP3A4 [4]; 0.75 μM metaxalone, 5 pmol CYP450): 17.9%
- % Turnover Mean (CYP3A4 [4]; 0.75 μM metaxalone, 5 pmol cyp): 17.9%
- [metaxalone] Mean (CYP3A4 [4]; 0.75 μM metaxalone, 5 pmol cyp): 0.585 µM
- % Turnover % (CYP3A4 [4]; 0.75 μM metaxalone, 5 pmol cyp): 20.3% and 18.3% and 15.0%
- [metaxalone] (CYP3A4 [4]; 0.75 μM metaxalone, 5 pmol cyp): 0.567 µM and 0.582 µM and 0.605 µM
- percent turnover (CYP3A4 [4]; 0.75 μM metaxalone, 20 pmol CYP450): 34.0%
- % Turnover Mean (CYP3A4 [4]; [5]): 34.0%
- [metaxalone] Mean (CYP3A4 [4]; [5]): 0.470 µM
- % Turnover % (CYP3A4 [4]; [5]): 31.7% and 39.0% and 31.4%
- [metaxalone] (CYP3A4 [4]; [5]): 0.486 µM and 0.434 µM and 0.488 µM
- percent turnover (CYP3A4 [4]; 7.5 μM metaxalone, 5 pmol CYP450): 16.6%
- % Turnover Mean (CYP3A4 [4]; 7.5 μM metaxalone, 5 pmol cyp): 16.6%
- [metaxalone] Mean (CYP3A4 [4]; 7.5 μM metaxalone, 5 pmol cyp): 6.43 µM
- % Turnover % (CYP3A4 [4]; 7.5 μM metaxalone, 5 pmol cyp): 17.5% and 16.7% and 15.7%
- [metaxalone] (CYP3A4 [4]; 7.5 μM metaxalone, 5 pmol cyp): 6.36 µM and 6.43 µM and 6.50 µM
- percent turnover (CYP3A4 [4]; 7.5 μM metaxalone, 20 pmol CYP450): 32.4%
- % Turnover Mean (CYP3A4 [4]; 7.5 μM metaxalone, 20 pmol cyp): 32.4%
- [metaxalone] Mean (CYP3A4 [4]; 7.5 μM metaxalone, 20 pmol cyp): 5.22 µM
- % Turnover % (CYP3A4 [4]; 7.5 μM metaxalone, 20 pmol cyp): 34.3% and 32.8% and 30.0%
- [metaxalone] (CYP3A4 [4]; 7.5 μM metaxalone, 20 pmol cyp): 5.07 µM and 5.18 µM and 5.40 µM
- Substrate (CYP3A4 [4]; CYP isozyme 3A4, summary of studies): +
- % Turnover (CYP2C8; 0.75 μM metaxalone): 14.3%
- Conc. (CYP2C8; 0.75 μM metaxalone): 661 nM
- % Turnover (CYP2C8; 7.5 μM metaxalone): −1.8%
- % inhibition of turnover (CYP2C8; 7.5 μM metaxalone): 107%

Source: US20080292584A1 (priority 2005, published 2008)
